Assay results reported in patent US11155571B2, “Salt of pyranose-substituted heterocyclic compound, preparation method therefor and use thereof” (Yabao Pharmaceutical Group Co., Ltd., priority 2018, dated 2021).

Experiment: Solubility in water
Type: physicochemical

solubility: < 2300 µg/mL
SMILES: Cc1cccc2c1c(Cc1ccc(OCCCN3CCCC4(CCN(C(=O)CNC(=O)NCC(C)C)CC4)C3)cc1)cn2C1O[C@H](CO)[C@@H](O)[C@H](O)[C@H]1O (stereo partly shown) [compound represented by formula (II)]
